Laboratory results taken from US10729671B2, “Zinc complexes of hydrazones and (thio)semicarbazones and their use for the treatment of cancer” (RUTGERS, THE STATE UNIVERSITY OF NEW JERSEY, priority 2015, dated 2020).
One block for each compound: values may come before it.

Experiments:
[1] = system: TOV112D; test: Cell-based TOV112D activity (cell growth inhibition assay); set-up: species or system human
[2] = system: HEK293 cells; test: Intracellular [Zn2+]free imaging with FluoZin-3-AM in HEK293 cells; format: cell-based
Experimental: (§1) To minimize the potential for Zn^2+ contamination and contributions from poorly defined elements in complete media (e.g. FBS), cells were treated and imaged in Ca^2+ and Mg^2+-free Earle's Balanced Salt Solution supplemented with 10 mM HEPES pH 7.4 (EBSS/H (−)Ca/Mg). Excess ZnCl2 with the Zn^2+ ionophore pyrithione (PYR) was used as a positive control. Excess membrane-permeable Zn^2+ chelator N,N,N′,N′-tetrakis(2-pyridylmethyl)ethane-1,2-diamine (TPEN) was used as a negative control.
To normalize for differential dye loading, cells were then sequentially treated with excess PYR/ZnCl2, imaged, treated with TPEN, and imaged again. PYR/ZnCl2 and TPEN served to saturate and apoize the intracellular FZ3, respectively.
(§2) [formula] where Ji is the initial flux, ΔF/Δt is the slope of the fit line, Fmax is RZ-3 fluorescence in the presence of saturating Zn^2+ and 1% TritonX-100, Fmin is RZ-3 fluorescence in the presence of excess EDTA and 1% TritonX-100, [RZ3] is the concentration of encapsulated RZ-3, and SA/Vol is the surface area to volume ratio calculated assuming hollow spheres of the mean diameter determined by DLS. Intracellular [Zn^2+]free Imaging TOV112D or HEK293 cells (40,000 cells/well) were plated on either 8-well BD Falcon chambered culture slides (Corning Life Sciences) or 8-chambered #1.5 Nunc Lab-Tek II chambered coverglasses (Thermo Scientific) treated with poly-L-lysine. After 48 h, cells were washed 2×5 m in serum-free media and incubated with 1 μM FZ3-AM for 40 m at 37° C. Cells were then washed 2×5 m in either EBSS/H (−)Ca/Mg or phenol-red free DMEM+10% FBS containing the indicated treatments for 20 m before imaging. For nuclear colocalization, 1 μg/mL Hoechst 33342 was also included. Cells were imaged using a Zeiss LSM510 META NLO confocal microscope equipped with 37° C. environmental control chamber. FZ3 and Hoechst 33342 were excited at 488 nm (argon laser) and 790 nm (Chameleon Ti:sapphire laser), respectively. To determine the kinetics of fluorescence change, each background-subtracted image in the time-lapse series was integrated in ImageJ and normalized to the integrated fluorescence of the first frame after treatment. For quantification of intracellular [Zn^2+]free, each cell was analyzed in the treated, 50 μM PYR/ZnCl2 (1:1), and 100 μM TPEN images by taking the mean fluorescence of an ROI inside the cell subtracted by an ROI immediately outside the cell measured in ImageJ. The [Zn^2+]free for each cell was then calculated by Eqn 2:
[formula] […] To minimize the effects of outliers the lowest and highest 5% of cells in each series were rejected, and the remaining values averaged to give the value from that experiment. The number of cells analyzed in each trial ranged from 54-163. […]

[3] = Liposome import assay (RZ-3 fluorescence); details: for Zn2+ transport into liposomes: external [Zn2+]free 10 μM
Experimental: DOPC-liposomes were prepared by film rehydration and extrusion followed by gel filtration and diluted to an OD600=0.06 in buffer. The size distribution of the liposomes was determined by dynamic light scattering (DLS) using a Malvern Zetasizer Nano ZS. Fluorescence measurements were taken on a Horiba Fluoromax-4 spectrofluorimeter in a 5×5 mm quartz cuvette with λex/λem=550/572 nm for RZ-3 and 490/515 nm for calcein. Initial Zn^2+ import/export was quantified by fitting the first 10-30 s of data after each treatment to a line and converted to units of flux using the following Eqn 1:
as §2, with “For nuclear colocalization, 1 μg/mL Hoechst 33342 was also included. Cells were imaged using a Zeiss LSM510 META NLO confocal microscope equipped with 37° C. environmental control chamber. FZ3 and Hoechst 33342 were excited at 488 nm (argon laser) and 790 nm (Chameleon Ti:sapphire laser), respectively.” left out, “2: […]” for “2:”

[4] = system: TOV112D cells; test: Intracellular [Zn2+]free imaging with FluoZin-3-AM in TOV112D cells; format: cell-based; details: ZMC1 alone (no ZnCl2), EBSS/H (−)Ca/Mg
Experimental: as §1
To normalize for differential dye loading, cells were then sequentially treated with excess PYR/ZnCl2, imaged, treated with TPEN, and imaged again. […]
[formula] where Ji is the initial flux, ΔF/Δt is the slope of the fit line, Fmax is RZ-3 fluorescence in the presence of saturating Zn^2+ and 1% TritonX-100, Fmin is RZ-3 fluorescence in the presence of excess EDTA and 1% TritonX-100, [RZ3] is the concentration of encapsulated RZ-3, and SA/Vol is the surface area to volume ratio calculated assuming hollow spheres of the mean diameter determined by DLS. […] To determine the kinetics of fluorescence change, each background-subtracted image in the time-lapse series was integrated in ImageJ and normalized to the integrated fluorescence of the first frame after treatment. […] The [Zn^2+]free for each cell was then calculated by Eqn 2:
[formula] […] The number of cells analyzed in each trial ranged from 54-163. […]

[5] = Zn2+ binding affinity
Experimental: It can function as an ionophore in conditions of the liposome experiments where external [Zn^2+]free was 10 μM. However, in complete media containing 10% fetal bovine serum (FBS), Zn^2+-binding proteins from the serum (e.g. albumin) necessarily compete for Zn^2+ with any putative MC, making the effective [Zn^2+]free much lower than [Zn^2+]total.
FZ3-AM, RZ-3 (K^+ salt), and cell culture media were purchased from Life Technologies. DOPC was purchased from Avanti Polar Lipids. ZMC1 and A6 were similarly obtained. […] HEK293 and TOV112D cells were purchased from ATCC and maintained in DMEM+GlutaMAX with 10% FBS and 1 mg/mL penicillin-streptomycin under a 5% CO2 atmosphere at 37° C. All non-cell based experiments were conducted in 50 mM Tris pH 7.2, 0.1 M NaCl at 25° C.

[6] = HEK293 (non-cancer, p53-WT), FZ3-AM, complete media, confocal microscopy

Structure (SMILES): C/C(=N\Nc1nc2ccccc2o1)c1ccccn1 [Compound 4, (E)-2-(2-(1-(pyridin-2-yl)ethylidene)hydrazinyl)benzo[d]oxazole]
Activity TOV112D [1]: +++

Structure (SMILES): C/C(=N\Nc1nc2ccccc2n1C)c1ccccn1 [Compound 10, (E)-1-methyl-2-(2-(1-(pyridin-2-yl)ethylidene)hydrazinyl)-1H-benzo[d]imidazole]
Activity TOV112D [1]: +++

Structure (SMILES): C/C(=N\Nc1nc2ccccc2s1)c1ncc[nH]1 [Compound 13, (E)-2-(2-(1-(1H-imidazol-2-yl)ethylidene)hydrazinyl)benzo[d]thiazole]
Activity TOV112D [1]: +

Structure (SMILES): C/C(=N\Nc1nc2ccccc2[nH]1)c1ccccn1 [Compound 9, (E)-2-(2-(1-(pyridin-2-yl)ethylidene)hydrazinyl)-1H-benzo[d]imidazole]
Activity TOV112D [1]: +++

Structure (SMILES): O=C(O)CN(CC(=O)O)CC(=O)O [NTA]
increase of intracellular [Zn2+]free [2, 6]: did not
Zn2+ transport into liposomes [3]: did not

Structure (SMILES): C/C(=N\NC(=S)N1CCC1)c1cc(N(C)C)ccn1 [Compound 2, (E)-N′-(1-(4-(dimethylamino)pyridin-2-yl)ethylidene)azetidine-1-carbothiohydrazide]
Activity TOV112D [1]: +++

Structure (SMILES): C/C(=N\Nc1nc2cc(F)ccc2s1)c1ccccn1 [Compound 14, (E)-5-fluoro-2-(2-(1-(pyridin-2-yl)ethylidene)hydrazinyl)benzo[d]thiazole]
Activity TOV112D [1]: +++

Structure (SMILES): C/C(=N\Nc1nc2ccc(F)cc2s1)c1ccccn1 [Compound 15, (E)-6-fluoro-2-(2-(1-(pyridin-2-yl)ethylidene)hydrazinyl)benzo[d]thiazole]
Activity TOV112D [1]: +++

Structure (SMILES): CC(C)/C(=N\Nc1nc2ccccc2s1)c1ccccn1 [Compound 12, (E)-2-(2-(2-methyl-1-(pyridin-2-yl)propylidene)hydrazinyl)benzo[d]thiazole]
Activity TOV112D [1]: +

Structure (SMILES): C/C(=N\NC(=S)N1CCC1)c1ccccn1 [ZMC1]
increase of intracellular [Zn2+]free [4]: neither cell type showed an increase
increase of intracellular [Zn2+]free [2, 6]: increased
increase of intracellular [Zn2+]free ([2]; HEK293, ZMC1 alone (no ZnCl2), EBSS/H (−)Ca/Mg): neither cell type showed an increase
RZ-3 fluorescence after reversal of the [Zn2+]free gradient (Zn2+ export) ([3]; large excess of EDTA outside of the liposomes, then ZMC1 added): time dependent decrease

Structure (SMILES): C/C(=N\NC(=S)N1CCC1)c1cnccn1 [Compound 1, (E)-N′-(1-(Pyrazin-2-yl)ethylidene)azetidine-1-carbothiohydrazide]
Activity TOV112D [1]: ++

Structure (SMILES): C/C(=N\Nc1nc2ccccc2s1)c1ccccn1 [Compound 3, (E)-2-(2-(1-(pyridin-2-yl)ethylidene)hydrazinyl)benzo[d]thiazole]
Activity TOV112D [1]: +++

Structure (SMILES): CC/C(=N\Nc1nc2ccccc2s1)c1ccccn1 [Compound 11, (E)-2-(2-(1-(pyridin-2-yl)propylidene)hydrazinyl)benzo[d]thiazole]
Activity TOV112D [1]: +++

Kd [5]: 1100 nM
Structure (SMILES): C/C(=N\NC(=O)N1CCC1)c1ccccn1 [Compound A6]
increase of intracellular [Zn2+]free [2, 6]: did not
Zn2+ transport into liposomes [3]: shuttled Zn^2+ into the liposomes
